The text below walks through data of the NIST ThermoML archive (doi:10.1021/je050162g).

For orientation: viscosity means the internal friction of a fluid under shear. By speed of sound is commonly meant the propagation velocity of pressure waves in the medium. What is called mass density is mass per unit of volume. For orientation: vapor or sublimation pressure means the pressure of vapour in equilibrium with the condensed phase.

The conditions of data set [1]: Liquid; for viscosity / speed of sound: 101 kPa; for viscosity: Capillary tube (Ostwald / Ubbelohde) method; for speed of sound: Linear variable-path acoustic interferometer; for mass density: 101.33 kPa, Pycnometric method.
A short description of data set [2]: xn = mol fraction of the nth substance listed. As to conditions: 101 kPa, Liquid, x1 = 1; for viscosity: Capillary tube (Ostwald / Ubbelohde) method; for excess molar volume: Direct dilatometry; for speed of sound: Linear variable-path acoustic interferometer.

± gives the expanded uncertainty stated by the source.

As for `C=COC(C)=O` [vinyl acetate], the viscosity in data set [1] (303.15 K) was 0.384 ± 0.012 mPa·s; in data set [1] (308.15 K), 0.361 ± 0.011 mPa·s; in data set [1] (313.15 K) it was 0.332 ± 0.011 mPa·s. Besides, the speed of sound in data set [1] (303.15 K) was determined as 1095.9 ± 5.2 m/s; in data set [1] (308.15 K), 1072.5 ± 5.1 m/s; in data set [1] (313.15 K), 1055.7 ± 5.1 m/s. Besides, the mass density in data set [1] (303.15 K) amounted to 918 ± 6.8 kg/m3; in data set [1] (308.15 K) it was 904.2 ± 6.7 kg/m3; in data set [1] (313.15 K), 891.8 ± 6.7 kg/m3. In addition, the “vapor or sublimation pressure” value in data set [1] (344.68 K) was 97.3 ± 3 kPa.
Turning to `Cc1ccc(C)cc1` [1,4-dimethylbenzene], in data set [1] (303.15 K), the viscosity turned out to be 0.566 ± 0.016 mPa·s, the speed of sound is reported as 1283.7 ± 5.2 m/s and the mass density came out at 852.3 ± 2.3 kg/m3. In addition, in data set [1] (308.15 K), the viscosity turned out to be 0.537 ± 0.015 mPa·s, the speed of sound is 1271 ± 5.2 m/s and the mass density was found to be 847.9 ± 2.3 kg/m3. In addition, in data set [1] (313.15 K), the viscosity is 0.513 ± 0.015 mPa·s, the speed of sound was 1260 ± 5.2 m/s and the mass density amounted to 843.6 ± 2.3 kg/m3. Moreover, in data set [1] (410 K), the “vapor or sublimation pressure” value was determined as 97.3 ± 3 kPa.
As to `Cc1ccc(C)cc1` [1,4-dimethylbenzene] + C=COC(C)=O, in data set [2] (303.15 K), the viscosity worked out at 0.566 ± 0.016 mPa·s, the excess molar volume was 0 ± 6e-09 m3/mol and the speed of sound came out at 1283.7 ± 5.2 m/s. Besides, in data set [2] (308.15 K), the viscosity was found to be 0.537 ± 0.015 mPa·s, the excess molar volume is listed as 0 ± 6e-09 m3/mol and the speed of sound stood at 1271 ± 5.2 m/s. In addition, in data set [2] (313.15 K), the viscosity amounted to 0.513 ± 0.015 mPa·s, the excess molar volume amounted to 0 ± 6e-09 m3/mol and the speed of sound was 1260 ± 5.2 m/s.
